Measured values as given in ChEMBL document CHEMBL1201862, “PubChem BioAssay data set” (2004).
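These data come from cells grown in 96-well plates and exposed to compound for 48 hours at five concentrations. The concentration for 50% growth inhibition is given as GI50.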 Calls of active or inactive are those of the source. Rule as the data show it: active = GI50 up to about 1.1 µM and inactive = higher.

What was measured:
Experiment in all cases: NCI-60 cell line screen, 48 h
A498 = tested on: A498
COLO 205 = tested on: COLO 205
SF-268 = tested on: SF-268
MCF7 = tested on: MCF7
NCI-H226 = tested on: NCI-H226
HL-60 = tested on: HL-60
UACC-62 = tested on: UACC-62
RXF 393 = tested on: RXF 393
OVCAR-4 = tested on: OVCAR-4
SW-620 = tested on: SW-620
UO-31 = tested on: UO-31
SF-539 = tested on: SF-539
BT-549 = tested on: BT-549
HOP-62 = tested on: HOP-62
SK-MEL-2 = tested on: SK-MEL-2
SNB-19 = tested on: SNB-19
NCI/ADR-RES = tested on: NCI/ADR-RES
EKVX = tested on: EKVX
SNB-75 = tested on: SNB-75
LOX IMVI = tested on: LOX IMVI
SK-OV-3 = tested on: SK-OV-3
SF-295 = tested on: SF-295
NCI-H23 = tested on: NCI-H23
OVCAR-3 = tested on: OVCAR-3
NCI-H460 = tested on: NCI-H460
SK-MEL-5 = tested on: SK-MEL-5
HOP-92 = tested on: HOP-92
HCT-116 = tested on: HCT-116
RPMI-8226 = tested on: RPMI-8226
A549 = tested on: A549
IGROV-1 = tested on: IGROV-1
ACHN = tested on: ACHN
K562 = tested on: K562
UACC-257 = tested on: UACC-257
T47D = tested on: T47D
CAKI-1 = tested on: CAKI-1
HCT-15 = tested on: HCT-15
TK-10 = tested on: TK-10
HT-29 = tested on: HT-29
786-0 = tested on: 786-0
U-251 = tested on: U-251
Malme-3M = tested on: Malme-3M
KM12 = tested on: KM12
CCRF-CEM = tested on: CCRF-CEM
HCC 2998 = tested on: HCC 2998
SR = tested on: SR
MDA-MB-231 = tested on: MDA-MB-231
SN12C = tested on: SN12C
Hs-578T = tested on: Hs-578T
OVCAR-5 = tested on: OVCAR-5
OVCAR-8 = tested on: OVCAR-8
DU-145 = tested on: DU-145
MDA-MB-435 = tested on: MDA-MB-435
SK-MEL-28 = tested on: SK-MEL-28
MOLT-4 = tested on: MOLT-4
PC-3 = tested on: PC-3
M14 = tested on: M14

Measured: GI50

CC(C)(Oc1ccc(Cl)cc1)C(=O)N(C(=O)N1CCC(c2ccccc2)CC1)c1ccccc1
inactive: A498 > 82.8 µM | COLO 205 10 µM | SF-268 > 100 µM | MCF7 23.7 µM | NCI-H226 > 61 µM | HL-60 1.6 µM | UACC-62 > 57.5 µM | RXF 393 13.6 µM | OVCAR-4 > 100 µM | SW-620 22.4 µM | UO-31 22.4 µM | SF-539 > 100 µM | BT-549 23.4 µM | HOP-62 > 100 µM | SK-MEL-2 > 59.7 µM | SNB-19 > 100 µM | NCI/ADR-RES > 29.6 µM | EKVX 11.1 µM | SNB-75 > 26.1 µM | LOX IMVI 22.9 µM | SK-OV-3 99.8 µM | SF-295 23.8 µM | NCI-H23 8.79 µM | OVCAR-3 > 73.5 µM | NCI-H460 16 µM | SK-MEL-5 4.94 µM | HOP-92 > 100 µM | HCT-116 4.78 µM | RPMI-8226 2.99 µM | A549 34.5 µM | IGROV-1 > 53.2 µM | ACHN 40.6 µM | K562 4.2 µM | UACC-257 11 µM | T47D 7 µM | CAKI-1 46 µM | TK-10 > 30.1 µM | HT-29 22.5 µM | 786-0 > 100 µM | U-251 > 25.2 µM | Malme-3M 25.4 µM | KM12 15.5 µM | CCRF-CEM 3.03 µM | HCC 2998 41.4 µM | SR > 100 µM | MDA-MB-231 > 100 µM | SN12C 27.4 µM | Hs-578T > 73.8 µM | OVCAR-5 > 100 µM | OVCAR-8 8.47 µM | DU-145 > 100 µM | MDA-MB-435 > 100 µM | SK-MEL-28 > 100 µM | MOLT-4 7.05 µM | PC-3 5.51 µM | M14 65 µM
9.89 µM: HCT-15
